The text below walks through data of publication PMC11110238, “Synthesis of novel carbazole hydrazine-carbothioamide scaffold as potent antioxidant, anticancer and antimicrobial agents” (BMC Chemistry, 2024).

≈ marks a conversion by molar mass, not a printed value. Marks after values point to notes of the source that are not given here. Where only a bound is given, the exact number is not on record here.

Data set [1] can be described thus: DPPH radical scavenging assay. The settings on record: 30 min, 517 nm. It is filed as biochemical. As for the experimental part: To estimate the Carbazole derivatives' antioxidant potential, a solution of each compound (1 mM/mL) in methanol was serially diluted with methanol to obtain a concentration of 1, 2, 5, 10, 20, 50, and 100 µM/mL. Then, DPPH (2,2-diphenyl-1-picrylhydrazyl) reagent (Sigma, USA) was dissolved in 0.002% w/v methanol and mixed with the previously prepared working concentrations in a 1:1 ratio. The same procedures were repeated for Trolox (Sigma-Aldrich, Denmark), which was used as a positive control. All of the solutions were kept in the dark chamber for 30 min at an ordinary temperature. Then, their absorbance values were measured at a wavelength of 517 nm utilizing a UV–visible spectrophotometer. The DPPH inhibition potentials by Carbazole derivatives and Trolox were determined employing the following equation: DPPH inhibition(\%)=abs(blank)-abs(sample)/abs(blank)∗100\% where absblank is the blank absorbance and abssample is the absorbance of the samples [58]. The antioxidant half-maximal inhibitory concentration (IC50) of the synthesized carbazole derivatives and Trolox were assessed by using an online tool “Quest Graph™ IC50 Calculator.” AAT Bioquest, Inc., 25 May. 2023, https://www.aatbio.com/tools/ic50-calculator.
(In general: Loss of DPPH colour is used to gauge radical scavenging.)

The subject of data set [2] is MCF-7 cell line. The data set is described as follows: MTT cell viability, MCF-7 cancer cell line. Type of data set: cell-based. The settings on record: Homo sapiens, MCF7; MTT, 48 h; read-out: IC50 values Carbazole Derivatives Effect on MCF-7 Cell Line. The protocol:
MCF-7 cancer cell lines were cultured at Dulbecco’s Modified Eagle Medium High Glucose (DMEM) (EuroClone, Via Figino, Italy); fetal bovine serum (FBS) and MTT (3-(4,5-Dimethylthiazol-2-yl)-2,5-Diphenyl Tetrazolium Bromide) were provided by Sigma-Aldrich (Darmstadt, Germany); ApopNexin Annexin-V-FITC with PI Apoptosis Kit was obtained from Merck (Darmstadt, Germany); Total RNA Isolation Kit was provided by Analytic Jena (Jena, Germany), SensiFast cDNA Synthesis Kit was provided by Meridian Bioscience (Cincinati, USA), SybrGreen Master Mix was obtained from EuroClone (Via Figino, Italy).
Cells (MCF-7 and L929) were incubated in 75 cm^2 sterile flasks with 10% FBS, 100 U/mL penicillin, and 100 µg/mL streptomycin. The cells were grown at 37 ^○C in 5% CO2, and MTT was used to screen the viability of the cells. Cells were seeded at a density of 10^4 cells per well. The cells were then cultured for 24 h in 100 µl of DMEM complete medium. After pretreatment with different concentrations of the compounds for 48 h, 10 µl of 5 mg/mL MTT solution was added to each well and incubated for 4 h at 37 ^○C, and 100 µl of DMSO was used in each well to dissolve the blue formazan crystals. Then, the absorbance was measured at 570 nm. The cell viability percentages of compound 4o against MCF-7 cancer cell lines and L929 normal cell lines were presented in Fig. 2 in comparison with doxorubicin anticancer agent.

For data set [3], the system named is Staphylococcus aureus. The data set is described as follows: MIC and MBC test, S. aureus. It is filed as cell-based. The protocol: (§1) Using Muller Hinton agar medium, the antibacterial activity was evaluated by using 24 h cultures of Escherichia coli, Staphylococcus aureus, and Candida albicans. E. coli and S. aureus were incubated in 1% Mueller Hinton Broth (MHB) liquid medium at 37 °C for 24 h; C. albicans was incubated in Sabouraud Dextrose Broth (SDB) at 30 °C for 48 h. MIC (Minimum Inhibitory Concentration) and MBC (Minimum Bactericidal Concentration) tests were performed to determine antimicrobial activity. This stage was carried out in a sterile cabinet.
(§2) The density of microorganisms in fresh cultures was adjusted according to the MacFarland 0.5 scale. For that, the microorganisms were centrifuged at 4000 rpm for 20 min. The supernatant was poured off, and the pellet was washed with 1 mL of 0.9% NaCl solution (physiological saline). The centrifugation was then repeated. The pellet was dissolved again with saline solution and adjusted to 0.5 MacFarland. In the experiment performed in a sterile 96-well plate, compound 4o was diluted ½ with DMSO to prepare a stock solution. In the first, 100 µl of medium and 100 µl of compound 4o as initial dilutions. Dilution was performed seven times at a ratio of ½. Then, 5 µl of fresh microorganism cultures prepared as MacFarland 0.5 were inoculated. The control group was prepared as 100 µl medium, 100 µl distilled water, and 5 µl microorganisms. The plates were incubated at 37 °C and 30 °C for 24 h.
(§3) After incubation, 10 µl of the sample was taken, dropped onto the respective media, and incubated for 24 h at appropriate temperatures to clearly distinguish the residues left by the compound 4o and the growth of microorganisms. Mueller Hinton Agar (MHA) was used for E. coli and S. aureus, and Potato Dextrose Agar (PDA) was used for C. albicans. After incubation, MIC and MBC values were determined. The first well with a significant decrease in growth was considered as MIC, and the first well with no growth was considered as MBC [59, 60].

For data set [4], the system named is Escherichia coli. The data set is described as follows: MIC and MBC test, E. coli. It is filed as cell-based. As for the experimental part: as §1, §2, §3
Data set [5] concerns Candida albicans. The data set is described as follows: MIC and MBC test, C. albicans. Type of data set: cell-based. The protocol:
as §1, §2, §3

As for `O=C(Cn1c2ccccc2c2ccccc21)NNC(=S)Nc1ccccc1` [Compound 4a, 2-(2-(9H-carbazol-9-yl)acetyl)-N-phenylhydrazine-1-carbothioamide], the melting point (as a rule, the temperature of the solid-liquid transition) was in the range of 235 to 237 °C. Also, in data set [1], the IC50 – broadly, the concentration that gives 50% inhibition – was found to be 52.1 ± 2.42 µM. Moreover, the half-maximal inhibitory concentration (IC50) in data set [2] was more than 20 µM.
For `COc1cccc(NC(=S)NNC(=O)Cn2c3ccccc3c3ccccc32)c1` [Compound 4b, 2-(2-(9H-carbazol-9-yl)acetyl)-N-(3-methoxyphenyl)hydrazine-1-carbothioamide] the same measures were 218 to 220 °C, 5.15 ± 1.02 µM and more than 20 µM.
The molecule `O=C(Cn1c2ccccc2c2ccccc21)NNC(=S)NCCCN1CCOCC1` [Compound 4c, 2-(2-(9H-carbazol-9-yl)acetyl)-N-(3-morpholinopropyl)hydrazine-1-carbothioamide] yielded a melting point of 189 to 191 °C. This molecule returned an IC50 in data set [1] of 8.99 ± 2.17 µM. Moreover, in data set [2], the IC50 was more than 20 µM.
For `O=C(Cn1c2ccccc2c2ccccc21)NNC(=S)Nc1cccc2ccccc12` [Compound 4d, 2-(2-(9H-carbazol-9-yl)acetyl)-N-(naphthalen-1-yl)hydrazine-1-carbothioamide] the same measures were 222 to 224 °C, 29.7 ± 1.77 µM and more than 20 µM.
For `O=C(Cn1c2ccccc2c2ccccc21)NNC(=S)Nc1ccc([N+](=O)[O-])cc1` [Compound 4e, 2-(2-(9H-carbazol-9-yl)acetyl)-N-(4-nitrophenyl)hydrazine-1-carbothioamide] the same measures were 235 to 237 °C, 50.8 ± 1.88 µM and more than 20 µM.
On the same counts, the results for `COc1ccc(NC(=S)NNC(=O)Cn2c3ccccc3c3ccccc32)cc1` [Compound 4f, 2-(2-(9H-carbazol-9-yl)acetyl)-N-(4-methoxyphenyl)hydrazine-1-carbothioamide] are 210 to 212 °C, 3.41 ± 1.05 µM and more than 20 µM.
In turn, `O=C(Cn1c2ccccc2c2ccccc21)NNC(=S)Nc1ccc(Br)cc1` [Compound 4g, 2-(2-(9H-carbazol-9-yl)acetyl)-N-(4-bromophenyl)hydrazine-1-carbothioamide] showed a melting point of 255 to 257 °C. For the same molecule, the IC50 in data set [1] worked out at 4.14 ± 0.75 µM. The IC50 in data set [2] was more than 20 µM.
For `O=C(Cn1c2ccccc2c2ccccc21)NNC(=S)Nc1ccc(Cl)cc1` [Compound 4h, 2-(2-(9H-carbazol-9-yl)acetyl)-N-(4-chlorophenyl)hydrazine-1-carbothioamide] the same measures were 235 to 237 °C, 0.73 ± 0.54 µM and more than 20 µM.
On the same counts, the results for `O=C(Cn1c2ccccc2c2ccccc21)NNC(=S)Nc1ccc(C(F)(F)F)cc1` [Compound 4k, 2-(2-(9H-carbazol-9-yl)acetyl)-N-(4-(trifluoromethyl)phenyl)hydrazine-1-carbothioamide] are 177 to 179 °C, 2.08 ± 0.72 µM and more than 20 µM.
For `O=C(Cn1c2ccccc2c2ccccc21)NNC(=S)NC1CCCCC1` [Compound 4m, 2-(2-(9H-carbazol-9-yl)acetyl)-N-cyclohexylhydrazine-1-carbothioamide] the same measures were 211 to 213 °C, 2.37 ± 1.7 µM and more than 20 µM.
Consider `Cc1ccc(NC(=S)NNC(=O)Cn2c3ccccc3c3ccccc32)cc1` [Compound 4n, 2-(2-(9H-carbazol-9-yl)acetyl)-N-(p-tolyl)hydrazine-1-carbothioamide], for which the melting point was in the range of 180 to 182 °C. The molecule further returned an IC50 in data set [1] of 1.52 ± 0.58 µM. Further, in data set [2], the IC50 was more than 20 µM.
On the same counts, the results for `O=C(Cn1c2ccccc2c2ccccc21)NNC(=S)NCc1ccccc1` [Compound 4p, 2-(2-(9H-carbazol-9-yl)acetyl)-N-benzylhydrazine-1-carbothioamide] are 169 to 171 °C, 10.2 ± 1.85 µM and more than 20 µM.
On the same counts, the results for `O=C(Cn1c2ccccc2c2ccccc21)NNC(=S)NC1CC2CCC1C2` (centres unmarked) [Compound 4r, 2-(2-(9H-carbazol-9-yl)acetyl)-N-(bicyclo[2.2.1]heptan-2-yl)hydrazine-1-carbothioamide] are 199 to 201 °C, 19.9 ± 1.55 µM and 4.99 ± 0.42 µM.
`O=C(Cn1c2ccccc2c2ccccc21)NNC(=S)NCCc1ccccc1` [Compound 4s, 2-(2-(9H-carbazol-9-yl)acetyl)-N-phenethylhydrazine-1-carbothioamide] displayed a melting point of 170 to 172 °C. In data set [1], this molecule had an IC50 of 3.05 ± 1.75 µM. For the same molecule, in data set [2], the IC50 is more than 20 µM.
On the same counts, the results for `CC(C)NC(=S)NNC(=O)Cn1c2ccccc2c2ccccc21` [Compound 4t, 2-(2-(9H-carbazol-9-yl)acetyl)-N-isopropylhydrazine-1-carbothioamide] are 186 to 188 °C, 15.9 ± 2.07 µM and more than 20 µM.
For `C=CCNC(=S)NNC(=O)Cn1c2ccccc2c2ccccc21` [Compound 4y, 2-(2-(9H-carbazol-9-yl)acetyl)-N-allylhydrazine-1-carbothioamide] the same measures were 205 to 207 °C, 0.38 ± 0.05 µM and more than 20 µM.
On the same counts, the results for `CNC(=S)NNC(=O)Cn1c2ccccc2c2ccccc21` [Compound 4z, 2-(2-(9H-carbazol-9-yl)acetyl)-N-methylhydrazine-1-carbothioamide] are 173 to 175 °C, 21.6 ± 0.87 µM and more than 20 µM.
For the molecule `C[C@H]1c2cccc(O)c2C(=O)C2=C(O)[C@]3(O)C(=O)C(C(N)=O)=C(O)[C@@H](N(C)C)[C@@H]3[C@@H](O)[C@@H]21` [Doxycyline, reference compound], the MBC in data set [3] is recorded as 63.0^a µM. Moreover, in data set [4], the MBC is listed as 50.9^a µM and the MIC is recorded as 5.09^a µM.
The molecule `Cc1c(C)c2c(c(C)c1O)CCC(C)(C(=O)O)O2` (centres unmarked) [Trolox, reference compound] showed an IC50 in data set [1] of 7.71 ± 1.47 µM.
`OC(Cn1cncn1)(Cn1cncn1)c1ccc(F)cc1F` [fluconazole, reference compound]: the MBC in data set [5] came to 16.3 µM (≈ 4.99 µg/mL).
